Measured values reported in patent publication US4957911A, “Benzazecine derivatives for cognitive and memory functions” (Hoffmann-La Roche Inc., priority 1986, dated 1990).

Assays:
[1] = Acute toxicity, single oral administration to mice (LD50); conditions: mouse, in vivo
Excerpt: Moreover, the Table contains data for the acute toxicity (LD50 in mg/kg in the case of single oral administration to mice).

[2] = tested on: rats; assay: Passive avoidance in Skinner box: reversal of scopolamine-induced blocking of short-time memory; assay type: in vivo, rat; conditions: scopolamine 0.3 mg/kg i.p. and distilled water p.o.
Excerpt: The test apparatus is a "Skinner box" with an electrifiable grid floor (30×40 cm) and a grey plastic platform (15×15×0.8 cm) in the front right corner. Untrained male rats (100-120 g) are placed individually on the platform. As soon as they climb down on to the grid floor they receive a mild electric foot-shock (0.8 mA). The normal reaction of untrained rats is to climb back on to the platform. The foot-shock procedure must be repeated three to five times for each animal, after which the rats have acquired a "passive avoidance response", that is, they no longer attempt to descend from the platform to the grid floor.
Immediately thereafter three groups, each comprising 30 animals, are set up. The first group receives an injection (i.p.) of 0.3 mg/kg of scopolamine as well as distilled water (2 ml/kg p.o.). The second group receives an injection (i.p.) of 0.3 mg/kg of scopolamine and an oral dosage of the test substance. The third group receives only distilled water (p.o.).
Two hours later, each rat is placed once on the platform in the "Skinner box". […] The statistical significance of the difference between the results obtained in the first and in the second groups is determined by means of the Chi-Square test.
70-75% of the animals treated only with distilled water (p.o.) still remember 2-4 hours after learning the "passive avoidance response" that they should remain on the platform. […]

SMILES | LD50 [1] [mg/kg] | animals with retrograde effect on the short-time memory [2] | duration of retrograde effect on the short-time memory [2] [h]
CC(=O)N1CCCC(=O)c2ccc(F)cc2CCC1=O [I H H F H COCH3, 4-acetyl-11-fluoro-1,2,4,5,6,7-hexahydro-4-benzazecine-3,8-dione] | > 5000 |  | 
CC(=O)N1CCCC(=O)c2c(Cl)cc(Cl)cc2CCC1=O [I Cl H Cl H COCH3, 4-acetyl-9,11-dichloro-1,2,4,5,6,7-hexahydro-4-benzazecine-3,8-dione] | > 5000 |  | 
CC(=O)N1CCCC(=O)c2ccc(Cl)cc2CCC1=O [I H H Cl H COCH3, 4-acetyl-11-chloro-1,2,4,5,6,7-hexahydro-4-benzazecine-3,8-dione] | > 5000 |  | 
CC(=O)N1CCCC(=O)c2c(Cl)cccc2CCC1=O [I Cl H H H COCH3, 4-acetyl-9-chloro-1,2,4,5,6,7-hexahydro-4-benzazecine-3,8-dione] | > 5000 |  | 
CN1[C@@H]2C[C@@H](OC(=O)[C@H](CO)c3ccccc3)C[C@H]1[C@@H]1O[C@@H]12 [scopolamine] |  | 85-92% | 3 to 4
CC(=O)N1CCCC2=C1CCc1cc(Cl)ccc12 [II H H Cl H COCH3, 4-acetyl-8-chloro-1,2,3,4,5,6-hexahydrobenzo[f]quinoline] | 2500 to 5000 |  | 
